Values after ≈ are worked out from the molar mass of the structure shown. Like-named read-outs stand apart in the source and are kept apart here.

This data set can be described thus: physchem. The class given is physicochemical. The settings on record: for solubility thermodynamic at 24 h: thermodynamic from solid. The method, then:
In einem 50 mL Becherglas wurden 100 mg Polymer eingewogen und in 9,900 g dest. Wasser gelöst. Anschließend wurde dem Ansatz jeweils 100 mg Wirkstoff zugewogen, um eine übersättigte Lösung zu erhalten. Das Gemisch wurde nun 24 h bei Raumtemperatur mit Hilfe eines Magnetrührers gerührt. Nach einstündiger Ruhezeit wurde überschüssiger (d.h. nicht solubilisierter) Wirkstoff durch Zentrifugieren abgetrennt. Die so erhaltene, klare bzw. opake Lösung wurde anschließend auf ihren Wirkstoffgehalt mittels UV-Spektroskopie untersucht. Die Wellenlänge der UV-spektroskopischen Messung sind in Tabelle 1 zusammengestellt. Die Ergebnisse sind in Tabelle 2 zusammengestellt.

[1] abbreviates: active alone in dist. water without polymer (not according to the invention), 24 h at room temperature.

With `NC(=O)N1c2ccccc2C=Cc2ccccc21` [Carbamazepin], under setting [1], the “Löslichkeit Ohne Polymer” value was found to be 140 mg/L.
Turning to `N#Cc1nn(-c2c(Cl)cc(C(F)(F)F)cc2Cl)c(N)c1[S+]([O-])C(F)(F)F` (stereo not shown) [Fipronil], the solubility thermodynamic at 24 h (distilled water without polymer, active alone in dist. water without polymer (not according to the invention), 24 h at room temperature, read-out: Löslichkeit Ohne Polymer) came to 3 µg/mL (≈ 6.86 µM).
As for `CN1C(C(=O)Nc2ccccn2)=C(O)c2ccccc2S1(=O)=O` [Piroxicam], the solubility thermodynamic at 24 h (water) came out at 21 µg/mL (≈ 63.4 µM).
For `COC(=O)N(OC)c1ccccc1COc1ccn(-c2ccc(Cl)cc2)n1` [Pyraclostrobin], the “Löslichkeit Ohne Polymer” value under setting [1] is 22,5 mg/l.

Source of the values: EP2611847B1, “AMPHIPHILE FOR SOLUBILIZATION OF WATER-SOLUBLE ACTIVE INGREDIENTS” (BASF SE, priority 2010, dated 2012).
